From patent US20160168126A1, “CHEMICAL COMPOUNDS” (SYNGENTA LIMITED, priority 2013, published 2016)

Tested on: a variety of test species
Experiment: Post-emergence herbicidal activity (glasshouse, sprayed 8 days after sowing, evaluated after 13 days); on Post-emergence herbicidal damage score, ABUTH (Abutilon theophrasti): key: 5=total damage to plant; 0=no damage to plant; on Post-emergence herbicidal damage score, AMARE (Amaranthus retroflexus): key: 5=total damage to plant; 0=no damage to plant
Type: in vivo
Conditions: scale 0-5
Procedure, shortened: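 Foliar application to 8-day-old plants using a 0.5% Tween 20 acetone/water carrier; phytotoxicity is scored visually from 0 to 5 after 13 days of growth at 24/16 °C day/night.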

Compound | Post-emergence herbicidal damage score, ABUTH (Abutilon theophrasti) (250 g/ha) | Post-emergence herbicidal damage score, ALOMY (Alopecurus myosuroides) (250 g/ha) | Post-emergence herbicidal damage score, AMARE (Amaranthus retroflexus) (250 g/ha) | Post-emergence herbicidal damage score, ECHCG (Echinochloa crus-galli) (250 g/ha) | Post-emergence herbicidal damage score, SETFA (Setaria faberi) (250 g/ha) | Post-emergence herbicidal damage score, ZEAMX (Zea mays) (250 g/ha) | Post-emergence herbicidal damage score, ABUTH (Abutilon theophrasti) (1000 g/ha) | Post-emergence herbicidal damage score, ALOMY (Alopecurus myosuroides) (1000 g/ha) | Post-emergence herbicidal damage score, AMARE (Amaranthus retroflexus) (1000 g/ha) | Post-emergence herbicidal damage score, ECHCG (Echinochloa crus-galli) (1000 g/ha) | Post-emergence herbicidal damage score, SETFA (Setaria faberi) (1000 g/ha) | Post-emergence herbicidal damage score, ZEAMX (Zea mays) (1000 g/ha)
COC1=C(C)C(=O)N(c2cc(C(C)(C)C)n(C)n2)C1O (stereo not drawn) [Compound I2] | 5 | 4 | 5 | 3 | 4 | 1 | – | – | – | – | – | –
COC1=C(C)C(=O)N(c2cc(C(F)(F)F)n(C)n2)C1O (stereo not drawn) [Compound I3] | – | – | – | – | – | – | 5 | 5 | 5 | 5 | 5 | 4
COC1=C(C)C(=O)N(c2nn(C)c3c2CCC3(C)C)C1O (stereo not drawn) [Compound I4] | – | – | – | – | – | – | 5 | 5 | 5 | 5 | 5 | 3
COC1=C(C)C(=O)N(c2cc3n(n2)CCCC3(C)C)C1O (stereo not drawn) [Compound I5] | – | – | – | – | – | – | 5 | 5 | 5 | 5 | 5 | 4
COC1=C(Cl)C(O)N(c2cc(C(C)(C)C)n(C)n2)C1=O (stereo not drawn) [Compound J1, 1-(5-tert-butyl-1-methyl-pyrazol-3-yl)-3-chloro-2-hydroxy-4-methoxy-2H-pyrrol-5-one] | – | – | – | – | – | – | 5 | 5 | 5 | 5 | 5 | 3
